We go through 14 compounds from PubChem BioAssay (NCI).

Some test systems named below: LOX IMVI melanoma; HOP-92 NSCLC; RPMI-8226 leukemia; SF-539 CNS; MOLT-4 leukemia; SNB-19 CNS; CCRF-CEM leukemia; EKVX NSCLC; BT-549 breast; HCT-15 colon; UACC-257 melanoma; HS 578T breast; NCI-H460 lung; MDA-N; UO-31 renal.
Experiment in all cases: NCI tumour cell line growth inhibition, 48 h

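Cells were grown in 96-well plates and exposed to each compound for 48 hours at five concentrations; endpoints were interpolated linearly between bracketing concentrations, or set to the highest concentration if not reached. The concentration for full growth arrest is given as TGI.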 Some results are limits rather than exact numbers.

Take `N#Cc1c(-c2cccc(Br)c2)cc(-c2ccc(Cl)cc2)nc1N`: the TGI worked out at 30.5 µM in the experiment on LOX IMVI melanoma; 32.4 µM in the experiment on HOP-92 NSCLC; 45.7 µM in the experiment on RPMI-8226 leukemia; 39.5 µM with SF-539 CNS; 50.1 µM in the experiment with MOLT-4 leukemia; 40.1 µM in the experiment with SNB-19 CNS. Also, the TGI in the experiment on CCRF-CEM leukemia stood at 87.5 µM; in the experiment on EKVX NSCLC, 56.7 µM; in the experiment on BT-549 breast, 99.3 µM; with HCT-15 colon, 30 µM; in the experiment with UACC-257 melanoma, 38.2 µM; with HS 578T breast, 43.1 µM. Besides, the TGI in the experiment on NCI-H460 lung was 50.8 µM; in the experiment on MDA-N, 46.7 µM; in the experiment with UO-31 renal, 48.7 µM.
With `N#Cc1c(Cl)cccc1Oc1ccc(S(=O)(=O)/N=C(\NO)Nc2ccc(Cl)cc2)cc1`, the TGI in the experiment with LOX IMVI melanoma turned out to be 32 µM; with HOP-92 NSCLC, 24.6 µM; in the experiment on RPMI-8226 leukemia it was 71.2 µM; in the experiment on SF-539 CNS it was 32.3 µM; in the experiment on MOLT-4 leukemia it was 44.1 µM; with SNB-19 CNS, 30 µM. Moreover, the TGI in the experiment on CCRF-CEM leukemia was 43.9 µM; with EKVX NSCLC it was 29 µM; with BT-549 breast it was 30.9 µM; with HCT-15 colon, 34.1 µM; in the experiment with UACC-257 melanoma, 32.1 µM; in the experiment on HS 578T breast it was 71.1 µM. The TGI amounted to 36.4 µM with NCI-H460 lung, 29.9 µM in the experiment with MDA-N and 27.2 µM in the experiment with UO-31 renal.
As to `Cc1cccc2c1CC(C1OC(=O)c3c(C)cccc31)C2=O` (stereo not given), the TGI in the experiment on LOX IMVI melanoma, in the experiment with HOP-92 NSCLC, with RPMI-8226 leukemia, in the experiment on SF-539 CNS, with MOLT-4 leukemia and with SNB-19 CNS was > 100 µM each time. For the same compound, the TGI in the experiment on CCRF-CEM leukemia, in the experiment on EKVX NSCLC, with BT-549 breast, in the experiment with HCT-15 colon, in the experiment on UACC-257 melanoma and with HS 578T breast was > 100 µM in each case. Besides, the TGI in the experiment with NCI-H460 lung, with MDA-N and with UO-31 renal was > 100 µM each time.
For the compound `O=C1CSC2(CC(/C=C/c3cccc(Br)c3)=NN2c2cccc(S(=O)(=O)O)c2)N1c1nc2ccccc2s1` (stereo not given), the TGI with LOX IMVI melanoma, in the experiment on HOP-92 NSCLC, in the experiment on RPMI-8226 leukemia, with SF-539 CNS, in the experiment on MOLT-4 leukemia and with SNB-19 CNS was > 100 µM in each case. Moreover, the TGI with CCRF-CEM leukemia, in the experiment on EKVX NSCLC, in the experiment with BT-549 breast, in the experiment with HCT-15 colon, in the experiment on UACC-257 melanoma and in the experiment with HS 578T breast was > 100 µM throughout. Further, the TGI in the experiment on NCI-H460 lung, with MDA-N and in the experiment on UO-31 renal was > 100 µM in each case.
Regarding `Cc1nc(C)c(N2CCN(C(=O)NC(CCC(=O)O)C(=O)O)CC2)c(=O)[nH]1` (stereo not given), the TGI in the experiment on LOX IMVI melanoma, in the experiment with HOP-92 NSCLC, with RPMI-8226 leukemia, in the experiment with SF-539 CNS, in the experiment on MOLT-4 leukemia and in the experiment with SNB-19 CNS was > 100 µM in each case. The TGI in the experiment on CCRF-CEM leukemia, with EKVX NSCLC, in the experiment on BT-549 breast, with HCT-15 colon, in the experiment with UACC-257 melanoma and in the experiment with HS 578T breast was > 100 µM in each case. In addition, the TGI in the experiment on NCI-H460 lung, with MDA-N and in the experiment on UO-31 renal was > 100 µM throughout.
Regarding `CN(O)C(=O)c1ccc(OCc2cccc(Cl)c2)cc1`, the TGI with LOX IMVI melanoma is > 100 µM; with HOP-92 NSCLC it was > 100 µM; in the experiment on RPMI-8226 leukemia it was > 100 µM; with SF-539 CNS it was > 51.6 µM; with MOLT-4 leukemia it was > 100 µM; in the experiment on SNB-19 CNS, > 100 µM. The TGI in the experiment with CCRF-CEM leukemia, in the experiment with EKVX NSCLC, in the experiment with BT-549 breast, in the experiment on HCT-15 colon, with UACC-257 melanoma and in the experiment on HS 578T breast was > 100 µM each time. In addition, the TGI in the experiment with NCI-H460 lung is > 100 µM; in the experiment with MDA-N, > 100 µM; in the experiment on UO-31 renal it was > 66.5 µM.
Take `Cc1cccc(/C=N/NC(=S)NC2CCCCC2)n1`: the TGI is 99 µM in the experiment on LOX IMVI melanoma; 61.8 µM in the experiment on HOP-92 NSCLC; 45.4 µM in the experiment with RPMI-8226 leukemia; 88.6 µM in the experiment on SF-539 CNS; 13.9 µM in the experiment with MOLT-4 leukemia; > 100 µM in the experiment on SNB-19 CNS. Also, the TGI in the experiment on CCRF-CEM leukemia was > 21.5 µM; in the experiment with EKVX NSCLC, > 100 µM; with BT-549 breast it was > 100 µM; in the experiment on HCT-15 colon, > 100 µM; in the experiment on UACC-257 melanoma it was > 84.5 µM; with HS 578T breast, > 100 µM. In addition, the results for the TGI with NCI-H460 lung, in the experiment with MDA-N and in the experiment with UO-31 renal were > 67.8 µM, > 93.1 µM and > 89.5 µM, respectively.
On to `CCOC(=O)NC(Nc1cccc(F)c1)(C(F)(F)F)C(F)(F)F`, for which the TGI in the experiment on LOX IMVI melanoma, in the experiment on HOP-92 NSCLC, in the experiment with RPMI-8226 leukemia, in the experiment with SF-539 CNS, in the experiment with MOLT-4 leukemia and in the experiment with SNB-19 CNS was > 100 µM each time. Also, the TGI in the experiment on CCRF-CEM leukemia, in the experiment on EKVX NSCLC, in the experiment on BT-549 breast, with HCT-15 colon, in the experiment with UACC-257 melanoma and in the experiment with HS 578T breast was > 100 µM throughout. For the same compound, the TGI with NCI-H460 lung, in the experiment with MDA-N and in the experiment on UO-31 renal was > 100 µM throughout.
On to `CC1(C)C2CC1C(/C=N\OCC(=O)O)=CC2=O` (stereo not given), for which the TGI in the experiment with LOX IMVI melanoma, in the experiment with HOP-92 NSCLC, in the experiment with RPMI-8226 leukemia, with SF-539 CNS, in the experiment on MOLT-4 leukemia and with SNB-19 CNS was > 100 µM throughout. Moreover, the TGI with CCRF-CEM leukemia, in the experiment on EKVX NSCLC, in the experiment on BT-549 breast, in the experiment on HCT-15 colon, with UACC-257 melanoma and in the experiment with HS 578T breast was > 100 µM in each case. Besides, the TGI with NCI-H460 lung, in the experiment on MDA-N and in the experiment on UO-31 renal was > 100 µM in each case.
As to `Clc1ccccc1-c1nn2c(CCCCCCCCc3nnc4sc(-c5ccccc5Cl)nn34)nnc2s1`, the TGI in the experiment on LOX IMVI melanoma, in the experiment with HOP-92 NSCLC, with RPMI-8226 leukemia, with SF-539 CNS, with MOLT-4 leukemia and with SNB-19 CNS was > 100 µM in each case. Besides, the TGI in the experiment on CCRF-CEM leukemia, with EKVX NSCLC, with BT-549 breast, in the experiment on HCT-15 colon, with UACC-257 melanoma and in the experiment on HS 578T breast was > 100 µM throughout. The TGI in the experiment with NCI-H460 lung, in the experiment on MDA-N and in the experiment on UO-31 renal was > 100 µM each time.
`CCOC(=O)Nn1cnnc1Cc1ccccc1`: the TGI in the experiment with LOX IMVI melanoma, in the experiment with HOP-92 NSCLC, with RPMI-8226 leukemia, in the experiment on SF-539 CNS, with MOLT-4 leukemia and with SNB-19 CNS was > 100 µM throughout. For the same compound, the TGI with CCRF-CEM leukemia was > 100 µM; with EKVX NSCLC, > 100 µM; in the experiment with BT-549 breast it was > 100 µM; in the experiment on HCT-15 colon it was > 100 µM; in the experiment with UACC-257 melanoma it was > 100 µM; in the experiment with HS 578T breast, 81.4 µM. Also, the TGI with NCI-H460 lung, with MDA-N and with UO-31 renal was > 100 µM in each case.
For `Nc1c(O)c2c(c(O)c1Cl)C(=O)C=CC2=O`, the TGI with LOX IMVI melanoma was 16.4 µM; in the experiment on HOP-92 NSCLC, 31.3 µM; in the experiment on RPMI-8226 leukemia, 44.8 µM; with SF-539 CNS it was 7.76 µM; in the experiment on MOLT-4 leukemia it was > 87.6 µM; in the experiment with SNB-19 CNS, 14.2 µM. For the same compound, the TGI was > 100 µM with CCRF-CEM leukemia; 24.4 µM in the experiment with EKVX NSCLC; 3.38 µM in the experiment with BT-549 breast; > 36.8 µM with HCT-15 colon; 3.3 µM with UACC-257 melanoma; 37.1 µM in the experiment with HS 578T breast. In addition, the TGI was 4.64 µM in the experiment on NCI-H460 lung, 3.24 µM in the experiment with MDA-N and 24.5 µM with UO-31 renal.
In the case of `COC(=O)C1=C(O)C(C(=O)OC)[C@]2(O)[C@H](C(=O)OC)[C@H]1C[C@@H](c1ccc(O)cc1)[C@H]2C(=O)OC` (stereo not given in full), the TGI was > 100 µM in the experiment on LOX IMVI melanoma; > 100 µM in the experiment on HOP-92 NSCLC; > 100 µM in the experiment on RPMI-8226 leukemia; 88.3 µM in the experiment on SF-539 CNS; > 100 µM with MOLT-4 leukemia; > 100 µM in the experiment with SNB-19 CNS. Further, the TGI is > 100 µM in the experiment with CCRF-CEM leukemia; > 100 µM in the experiment with EKVX NSCLC; 91.5 µM in the experiment with BT-549 breast; > 100 µM in the experiment on HCT-15 colon; > 100 µM with UACC-257 melanoma; 87.3 µM in the experiment on HS 578T breast. For the same compound, the figures for the TGI in the experiment with NCI-H460 lung, in the experiment on MDA-N and in the experiment on UO-31 renal were 74.5 µM, > 100 µM and > 100 µM, respectively.
For `CC(C)(C)c1cc(C(C)(C)C)c(P=C(Cl)Cl)c(C(C)(C)C)c1` (stereo not given), the TGI with LOX IMVI melanoma, in the experiment with HOP-92 NSCLC, with RPMI-8226 leukemia, in the experiment with SF-539 CNS, with MOLT-4 leukemia and in the experiment on SNB-19 CNS was > 100 µM each time. Besides, the TGI in the experiment on CCRF-CEM leukemia, in the experiment on EKVX NSCLC, with BT-549 breast, in the experiment on HCT-15 colon, in the experiment on UACC-257 melanoma and with HS 578T breast was > 100 µM in each case. Also, the TGI in the experiment on NCI-H460 lung, in the experiment on MDA-N and with UO-31 renal was > 100 µM throughout.
